The assay addresses T1, chicken gizzard smooth muscle myosin subfragment-1 chemically crosslinked to cardiac or skeletal actin (Gallus gallus, UniProt P10587).
T1 construct: chicken gizzard smooth muscle myosin subfragment-1; from tissue; host or cells: chicken gizzard
Put plainly: Smooth muscle myosin ATPase dose response assay (pyruvate kinase/horseradish peroxidase/pyruvate oxidase-coupled, amplex red fluorescence). The assay is classed as biochemical. Particulars: read-out: IC50 Arithmetic Mean. In short, it runs like this:
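Inhibition is measured in a peroxidase/pyruvate oxidase-linked format at pH 7.00 and 22° C, 0.15 mM ATP final. Myosin input is titrated to a target turnover since active fraction differs between preparations.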
T1 sequence (P02607 2-151): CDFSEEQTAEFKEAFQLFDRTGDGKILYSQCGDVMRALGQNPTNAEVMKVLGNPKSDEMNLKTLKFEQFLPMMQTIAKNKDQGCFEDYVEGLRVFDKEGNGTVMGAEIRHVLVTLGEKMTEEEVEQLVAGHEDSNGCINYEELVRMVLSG
T1 sequence (P10587 84-789): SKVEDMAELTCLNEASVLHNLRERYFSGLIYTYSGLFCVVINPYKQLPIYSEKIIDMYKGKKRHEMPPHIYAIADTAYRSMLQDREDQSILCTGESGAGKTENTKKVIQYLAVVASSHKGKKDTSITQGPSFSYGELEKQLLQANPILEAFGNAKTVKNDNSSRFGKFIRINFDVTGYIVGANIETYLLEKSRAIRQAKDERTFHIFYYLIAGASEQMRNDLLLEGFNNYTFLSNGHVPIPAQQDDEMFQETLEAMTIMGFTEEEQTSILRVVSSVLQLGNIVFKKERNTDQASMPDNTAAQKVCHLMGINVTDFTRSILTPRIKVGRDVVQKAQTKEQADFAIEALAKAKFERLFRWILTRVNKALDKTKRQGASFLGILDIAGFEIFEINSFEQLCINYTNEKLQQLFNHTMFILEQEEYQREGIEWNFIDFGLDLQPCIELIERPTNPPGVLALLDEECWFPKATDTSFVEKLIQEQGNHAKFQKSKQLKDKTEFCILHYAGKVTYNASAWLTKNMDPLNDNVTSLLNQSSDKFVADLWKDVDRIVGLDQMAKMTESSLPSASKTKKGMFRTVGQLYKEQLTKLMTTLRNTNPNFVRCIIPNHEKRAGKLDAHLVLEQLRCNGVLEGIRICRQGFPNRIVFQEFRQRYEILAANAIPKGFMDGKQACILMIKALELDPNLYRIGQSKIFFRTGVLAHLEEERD
On to `O=C(NCc1cccnc1)c1ccc(-c2ccccc2)nc1NCCc1ccccc1O` [(2-{[2-(2-hydroxyphenyl)ethyl]amino}-6-phenyl(3-pyridyl))-N-(3-pyridylmethyl)carboxamide], for which the IC50 was 2430 nM.

On to `COc1ccccc1CCNc1nc(-c2ccccc2)ccc1C(=O)NCc1cccnc1` [(2-{[2-(2-methoxyphenyl)ethyl]amino}-6-phenyl(3-pyridyl))-N-(3-pyridylmethyl)carboxamide], for which the IC50 worked out at 980 nM.

For `Cc1ccccc1CCNc1nc(-c2ccccc2)ccc1C(=O)NCc1cccnc1` [(2-{[2-(2-methylphenyl)ethyl]amino}-6-phenyl(3-pyridyl))-N-(3-pyridylmethyl)carboxamide], the IC50 was found to be 326 nM.

For `O=C(NCc1cccnc1)c1ccc(-c2ccccc2)nc1NCCN1CCCCC1=O` [(2-{[2-(2-oxopiperidyl)ethyl]amino}-6-phenyl(3-pyridyl))-N-(3-pyridylmethyl)carboxamide], the IC50 was 22100 nM.

Turning to `O=C(NCc1cccnc1)c1ccc(-c2ccccc2)nc1NCCN1CCCC1=O` [(2-{[2-(2-oxopyrrolidinyl)ethyl]amino}-6-phenyl(3-pyridyl))-N-(3-pyridylmethyl)carboxamide], the IC50 amounted to 10600 nM.

In the case of `O=C(NCc1cccnc1)c1ccc(-c2ccccc2)nc1NCCc1ccc(F)c(F)c1` [(2-{[2-(3,4-difluorophenyl)ethyl]amino}-6-phenyl(3-pyridyl))-N-(3-pyridylmethyl)carboxamide], the half-maximal inhibitory concentration (IC50) is 521 nM.

Consider `N#Cc1ccccc1-c1ccc(C(=O)NCc2cccnc2)c(NCCc2cc(F)cc(F)c2)n1` [(2-{[2-(3,5-difluorophenyl)ethyl]amino}-6-(2-cyanophenyl)(3-pyridyl))-N-(3-pyridylmethyl)carboxamide], for which the IC50 came out at 41 nM.

In the case of `O=C(NCc1cccnc1)c1ccc(-c2cccs2)nc1NCCc1cc(F)cc(F)c1` [(2-{[2-(3,5-difluorophenyl)ethyl]amino}-6-(2-thienyl)(3-pyridyl))-N-(3-pyridylmethyl)carboxamide], the IC50 stood at 97 nM.

As for `O=C(NCc1cccnc1)c1ccc(-c2ccsc2)nc1NCCc1cc(F)cc(F)c1` [(2-{[2-(3,5-difluorophenyl)ethyl]amino}-6-(3-thienyl)(3-pyridyl))-N-(3-pyridylmethyl)carboxamide], the 50% inhibitory concentration (IC50) turned out to be 40 nM.

As to `O=C(NCc1cccnc1)c1ccc(-c2ccc(F)cc2)nc1NCCc1cc(F)cc(F)c1` [(2-{[2-(3,5-difluorophenyl)ethyl]amino}-6-(4-fluorophenyl)(3-pyridyl))-N-(3-pyridylmethyl)carboxamide], the IC50 came to 138 nM.

Regarding `Cc1csc(-c2ccc(C(=O)NCc3cccnc3)c(NCCc3cc(F)cc(F)c3)n2)c1` [(2-{[2-(3,5-difluorophenyl)ethyl]amino}-6-(4-methyl(2-thienyl))(3-pyridyl))-N-(3-pyridylmethyl)carboxamide], the IC50 was determined as 119 nM.

For the compound `O=C(NCc1cccnc1)c1ccc(-c2ccccc2)nc1NCCc1cc(F)cc(F)c1` [(2-{[2-(3,5-difluorophenyl)ethyl]amino}-6-phenyl(3-pyridyl))-N-(3-pyridylmethyl)carboxamide], the IC50 is 55 nM.

Take `Cc1n[nH]c(C)c1CCNc1nc(-c2ccccc2)ccc1C(=O)NCc1cccnc1` [(2-{[2-(3,5-dimethylpyrazol-4-yl)ethyl]amino}-6-phenyl(3-pyridyl))-N-(3-pyridylmethyl)carboxamide]: the IC50 was 5940 nM.

Consider `Cc1cc(C)n(CCNc2nc(-c3ccccc3)ccc2C(=O)NCc2cccnc2)n1` [(2-{[2-(3,5-dimethylpyrazolyl)ethyl]amino}-6-phenyl(3-pyridyl))-N-(3-pyridylmethyl)carboxamide], for which the IC50 worked out at 6830 nM.

As for `O=C(NCc1cccnc1)c1ccc(-c2ccccc2)nc1NCCc1cccc(Cl)c1` [(2-{[2-(3-chlorophenyl)ethyl]amino}-6-phenyl(3-pyridyl))-N-(3-pyridylmethyl)carboxamide], the IC50 was determined as 349 nM.

Consider `N#Cc1cccc(CCNc2nc(-c3ccccc3)ccc2C(=O)NCc2cccnc2)c1` [(2-{[2-(3-cyanophenyl)ethyl]amino}-6-phenyl(3-pyridyl))-N-(3-pyridylmethyl)carboxamide], for which the IC50 is 4650 nM.
